Laboratory results from the NIST ThermoML archive (doi:10.1016/j.jct.2015.07.032).

Assays:
[1] = relative permittivity at various frequencies (dimensionless); details: 100 kPa, Liquid, Frequency=1 MHz, Parallel plate capacitor
[2] = relative permittivity at various frequencies (dimensionless); xn = mol fraction of the nth substance listed; details: 100 kPa, Liquid, Frequency=1 MHz, Parallel plate capacitor

CCCCO [butan-1-ol]
[1]
Details | relative permittivity
293.15 K | 18.21
298.15 K | 17.58
303.15 K | 16.95

CCCCO [butan-1-ol] + NC1CCCCC1
[2], x1 = 1
Details | relative permittivity
293.15 K | 18.21
298.15 K | 17.58
303.15 K | 16.95

NC1CCCCC1 [cyclohexylamine]
[1]
Details | relative permittivity
293.15 K | 4.62
298.15 K | 4.53
303.15 K | 4.45

NC1CCCCC1 [cyclohexylamine] + CCCCCCCCCCO
relative permittivity, [2]
Details | 293.15 K | 298.15 K | 303.15 K
x2 = 0 | 4.62 | 4.53 | 4.45
x2 = 0.0561 | 4.87 | 4.78 | 4.69
x2 = 0.1027 | 5.05 | 4.95 | 4.85
x2 = 0.2012 | 5.4 | 5.29 | 5.19
x2 = 0.2947 | 5.73 | 5.6 | 5.49
x2 = 0.4077 | 6.09 | 5.95 | 5.82
x2 = 0.5107 | 6.42 | 6.26 | 6.11
x2 = 0.5522 | 6.56 | 6.38 | 6.22
x2 = 0.604 | 6.72 | 6.53 | 6.36
x2 = 0.6528 | 6.88 | 6.68 | 6.5
x2 = 0.697 | 7.02 | 6.81 | 6.61
x2 = 0.7474 | 7.2 | 6.97 | 6.76
x2 = 0.7859 | 7.34 | 7.09 | 6.87
x2 = 0.8348 | 7.54 | 7.27 | 7.02
x2 = 0.8915 | 7.81 | 7.51 | 7.22
x2 = 0.942 | 8.08 | 7.73 | 7.41

NC1CCCCC1 [cyclohexylamine] + CCCCCCCO
relative permittivity, [2]
Details | 293.15 K | 298.15 K | 303.15 K
x2 = 0 | 4.62 | 4.53 | 4.45
x2 = 0.0522 | 4.93 | 4.83 | 4.74
x2 = 0.1037 | 5.22 | 5.11 | 5.01
x2 = 0.2039 | 5.8 | 5.7 | 5.61
x2 = 0.2903 | 6.29 | 6.15 | 6.01
x2 = 0.3955 | 6.93 | 6.76 | 6.6
x2 = 0.4467 | 7.27 | 7.08 | 6.91
x2 = 0.5072 | 7.67 | 7.45 | 7.26
x2 = 0.5554 | 8.01 | 7.78 | 7.56
x2 = 0.5918 | 8.26 | 8.01 | 7.78
x2 = 0.6575 | 8.72 | 8.45 | 8.19
x2 = 0.6959 | 9.01 | 8.71 | 8.44
x2 = 0.7433 | 9.39 | 9.07 | 8.77
x2 = 0.7933 | 9.81 | 9.46 | 9.13
x2 = 0.8177 | 10.03 | 9.67 | 9.34
x2 = 0.8881 | 10.7 | 10.29 | 9.9
x2 = 0.9463 | 11.35 | 10.89 | 10.45

NC1CCCCC1 [cyclohexylamine] + CCCCO
relative permittivity, [2]
Details | 293.15 K | 298.15 K | 303.15 K
x2 = 0 | 4.62 | 4.53 | 4.45
x2 = 0.0493 | 4.99 | 4.9 | 4.8
x2 = 0.1081 | 5.46 | 5.35 | 5.23
x2 = 0.2107 | 6.37 | 6.22 | 6.07
x2 = 0.3104 | 7.39 | 7.2 | 7.01
x2 = 0.403 | 8.47 | 8.22 | 7.99
x2 = 0.4521 | 9.08 | 8.82 | 8.56
x2 = 0.4995 | 9.73 | 9.44 | 9.15
x2 = 0.5556 | 10.55 | 10.21 | 9.9
x2 = 0.5974 | 11.18 | 10.82 | 10.49
x2 = 0.6987 | 12.81 | 12.4 | 11.98
x2 = 0.7968 | 14.53 | 14.04 | 13.57
x2 = 0.8955 | 16.31 | 15.76 | 15.24
x2 = 0.9472 | 17.26 | 16.67 | 16.11
x2 = 0.9773 | 17.82 | 17.2 | 16.63

NC1CCCCC1 [cyclohexylamine] + CCCO
relative permittivity, [2]
Details | 293.15 K | 298.15 K | 303.15 K
x2 = 0 | 4.62 | 4.53 | 4.45
x2 = 0.034 | 4.88 | 4.78 | 4.68
x2 = 0.1154 | 5.64 | 5.08 | 5.37
x2 = 0.213 | 6.58 | 6.42 | 6.26
x2 = 0.3031 | 7.66 | 7.46 | 7.26
x2 = 0.3996 | 9.02 | 8.76 | 8.5
x2 = 0.4469 | 9.77 | 9.48 | 9.19
x2 = 0.4962 | 10.61 | 10.29 | 9.97
x2 = 0.5499 | 11.61 | 11.25 | 10.89
x2 = 0.6056 | 12.69 | 12.29 | 11.9
x2 = 0.6998 | 14.69 | 14.24 | 13.79
x2 = 0.7953 | 16.94 | 16.43 | 15.92
x2 = 0.8464 | 18.08 | 17.54 | 17.01
x2 = 0.8913 | 19.21 | 18.71 | 18.14
x2 = 0.9509 | 20.44 | 19.85 | 19.21
x2 = 0.9798 | 21.09 | 20.41 | 19.77

CCCCCCCCCCO [decan-1-ol]
[1]
Details | relative permittivity
293.15 K | 8.41
298.15 K | 8.01
303.15 K | 7.64

CCCCCCCCCCO [decan-1-ol] + NC1CCCCC1
[2], x1 = 1
Details | relative permittivity
293.15 K | 8.41
298.15 K | 8.01
303.15 K | 7.64

CCCCCCCO [heptan-1-ol]
[1]
Details | relative permittivity
293.15 K | 11.97
298.15 K | 11.47
303.15 K | 10.98

CCCCCCCO [heptan-1-ol] + NC1CCCCC1
[2], x1 = 1
Details | relative permittivity
293.15 K | 11.97
298.15 K | 11.47
303.15 K | 10.98

CCCO [propan-1-ol]
[1]
Details | relative permittivity
293.15 K | 21.23
298.15 K | 20.54
303.15 K | 19.84

CCCO [propan-1-ol] + NC1CCCCC1
[2], x1 = 1
Details | relative permittivity
293.15 K | 21.23
298.15 K | 20.54
303.15 K | 19.84
